Test results taken from patent publication US8119641B2, “1H-furo[3,2-C]pyrazole compounds useful as kinase inhibitors” (Nerviano Medical Sciences S.R.L., priority 2006, dated 2012).

Assays:
[1] = biological target: T1, Aurora-2 (Homo sapiens, UniProt O14965); assay: Inhibition assay of Aurora-2 activity (SPA); format: biochemical
T1 sequence (O14965 1-403): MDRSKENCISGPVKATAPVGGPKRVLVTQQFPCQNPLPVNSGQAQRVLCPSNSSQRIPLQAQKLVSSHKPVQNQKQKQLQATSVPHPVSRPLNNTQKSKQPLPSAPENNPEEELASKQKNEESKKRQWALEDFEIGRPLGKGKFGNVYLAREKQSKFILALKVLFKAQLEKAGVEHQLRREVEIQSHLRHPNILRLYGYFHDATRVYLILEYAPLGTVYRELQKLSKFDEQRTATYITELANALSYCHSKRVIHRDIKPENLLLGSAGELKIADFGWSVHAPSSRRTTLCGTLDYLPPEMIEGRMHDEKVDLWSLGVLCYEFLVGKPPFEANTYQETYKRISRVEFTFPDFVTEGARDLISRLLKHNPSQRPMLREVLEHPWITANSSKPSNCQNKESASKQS
Description: The inhibiting activity and the potency of selected compounds is determined through a method of assay based on the use of the SPA technology (Amersham Pharmacia Biotech).
The assay consists of the transfer of radioactivity labelled phosphate moiety by the kinase to a biotinylated substrate. The resulting 33P-labelled biotinylated product is allowed to bind to streptavidin-coated SPA beads (biotin capacity 130 pmol/mg), and light emitted was measured in a scintillation counter.
Inhibition Assay of Aurora-2 Activity
Kinase reaction: 8 μM biotinylated peptide (4 repeats of LRRWSLG), 10 μM ATP (0.5 uCi P^33γ-ATP), 7.5 ng Aurora 2, inhibitor in a final volume of 30 μl buffer (HEPES 50 mM pH 7.0, MgCl2 10 mM, 1 mM DTT, 0.2 mg/mL BSA, 3 μM orthovanadate) were added to each well of a 96 U bottom well plate. After 60 minutes at room temperature incubation, reaction was stopped and biotinylated peptide captured by adding 100 μl of bead suspension.
Stratification: 100 μl of CsCl 5 M were added to each well and let stand 4 hour before radioactivity was counted in the Top-Count instrument.
IC50 determination: inhibitors were tested at different concentrations ranging from 0.0015 to 10 μM. […]

[2] = test system: human colon cancer cell line HCT-116; assay: In vitro cell proliferation assay; format: cell-based; settings: HCT-116, 72 hours of treatment, read-out: Cell Antiproliferation IC50
Description: The compounds of the invention were further tested, in vitro to assess the anti-proliferative effect onto cell cultures.
In Vitro Cell Proliferation Assay
The human colon cancer cell line HCT-116 was seeded at 5000 cells/cm^2 in 24 wells plate (Costar) using F12 medium (Gibco) supplemented with 10% FCS (EuroClone, Italy) 2 mM L-glutamine and 1% penicillin/streptomycin and maintained at 37° C., 5% CO2 and 96% relative humidity. The following day, plates were treated in duplicates with 5 ul of an appropriate dilution of compounds starting from a 10 mM stock in DMSO. Two untreated control wells were included in each plate. After 72 hours of treatment, medium was withdrawn and cells detached from each well using 0.5 mL of 0.05% (w/v) Trypsin, 0.02% (w/v) EDTA (Gibco) Samples were diluted with 9.5 mL of Isoton (Coulter) and counted using a Multisizer 3 cell counter (Beckman Coulter). Data were evaluated as percent of the control wells, % of CTR=(Treated−Blank)/(Control−Blank). IC50 values were calculated by LSW/Data Analysis using Microsoft Excel sigmoidal curve fitting.

`CC(C)(NC(=O)c1cc2[nH]nc(NC(=O)c3ccccc3NC(=O)c3ccc[nH]3)c2o1)c1ccccc1` [(1), 3-{2-[(1H-Pyrrole-2-carbonyl)-amino]-benzoylamino}-1H-furo[3,2-c]pyrazole-5-carboxylic acid (1-methyl-1-phenyl-ethyl)-amide] showed an IC50 [1] of 6 nM and an IC50 [2] of 5 nM.
